Test results taken from patent US10844071B2, “Substituted [1,2,3]triazolo[4,5-d]pyrimidines that lower stress-induced p-tau” (BUCK INSTITUTE FOR RESEARCH ON AGING, priority 2015, dated 2020).
In brackets after ≈: the same amount, converted by molar mass. Each block holds one compound with its values, some of them ahead of it.

Assays:
PAMPA = format: in vitro ADME; conditions: Tertiary
Solubility in DMSO = format: physicochemical; conditions: organic solvent or mixture, read-out: Solubility
SH-SY5Y cells [1] = assay: Primary screen in SH-SY5Y cells (tau, p-tau); format: cell-based; conditions: for p-tau / tau: SH-SY5Y cells, no CRF
Procedure: (§1) As described below, in vitro studies were performed using SHSY-5Y cells. These cells are a useful neurological model that differentiate into cells with morphological and biochemical characteristics of mature neurons including mature isoforms of tau.
However, J04 did lower p-tau to the same level as J03 and significant may not have been reached due to low N #.

[2] = In vivo pharmacokinetics, brain and plasma levels; parameters: species or system mouse
SH-SY5Y cells [3] = assay: Secondary screen in SH-SY5Y cells with CRF stimulation (tau, p-tau, sAPPα); format: cell-based
Procedure: as §1
In an initial study, SHSY-5Y cells were cultured without serum to induce differentiation and increase tau expression. […] The increases were proportional and both were about 50%. J03 (FIG. 4A) reduced the CRF-induced tau increases more than the p-tau increases. The increase in p-tau with CRF was expected, but the increase in tau less predictable as CRF reduces neuronal differentiation (see Chen et al. (2004) Proc. Natl. Acad. Sci. USA, 101(44): 15782-15787), however, it can increase tau accumulation.

CRF1 = target: T1, CRF1 (Homo sapiens, UniProt P34998); assay: CRF1 binding (Ki); conditions: Tertiary; read-out: CRF1 Ki
T1 sequence (P34998 24-415): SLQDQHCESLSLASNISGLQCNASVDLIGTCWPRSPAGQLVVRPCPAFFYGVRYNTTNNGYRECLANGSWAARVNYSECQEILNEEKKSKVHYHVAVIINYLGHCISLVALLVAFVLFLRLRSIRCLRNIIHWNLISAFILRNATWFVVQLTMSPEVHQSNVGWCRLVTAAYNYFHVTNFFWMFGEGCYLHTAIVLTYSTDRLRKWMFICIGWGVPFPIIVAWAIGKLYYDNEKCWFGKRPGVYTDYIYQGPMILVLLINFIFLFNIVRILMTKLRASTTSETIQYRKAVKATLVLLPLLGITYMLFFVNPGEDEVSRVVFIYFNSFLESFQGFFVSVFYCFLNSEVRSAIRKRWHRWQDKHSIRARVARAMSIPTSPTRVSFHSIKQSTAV

J20 mice = assay: J17 pilot study in J20 mice (oral, 28 days); format: in vivo, mouse
Procedure: Animal experiments were performed using J20 mice. The J20 mouse is a model of for Alzheimer's disease. This model overexpresses human APP with two mutations linked to familial Alzheimer's disease (the APP KM670/671NL (Swedish) and […] (Indiana) mutations).
In a J17 pilot study (#1 pilot study) male and female J20 mice were housed singly and treated with J17 at 10 mkd by oral delivery for 28 days. […]

[4] = Secondary (SH-Sy5Y, CRF stimulation)
[5] = subcutaneous injection of 10 mg/kg
[6] = SH-SY5Y cells, CRF-induced increase

PAMPA (PAMPA): 0.99
solubility (Solubility in DMSO): ~10 mM (≈ 3400 µg/mL)
SMILES: CCC(COC)n1nnc2c(Nc3ccc(C)cc3C)nc(C)nc21 (stereo not shown) [Compound J05]

brain levels at the peak ([2]; SQ injection at 10 mkd): ~190 ng/g
time of peak brain level after injection ([2]; SQ injection at 10 mkd): 4 h
brain levels with oral delivery compared to SQ ([2]; oral delivery, detectable from 1 to 6 hours): much lower
PAMPA (PAMPA): 0.75
solubility (Solubility in DMSO): ~10 mM (≈ 3610 µg/mL)
SMILES: CCC(COC)Nc1nc(C)nc2c1nnn2-c1ccc(Cl)cc1C (stereo not shown) [Compound J19, 3-(4-Chloro-2-methylphenyl)-N-(1-methoxybutan-2-yl)-5-methyl-3H-[1,2,3]triazolo[4,5-d]pyrimidin-7-amine]
p-tau/tau ratio (SH-SY5Y cells [1]; FIG. 29): unchanged
p-tau (SH-SY5Y cells [1]): decreased
tau (SH-SY5Y cells [1]): decreased
p-tau/tau ratios (SH-SY5Y cells [3]; 50 and 100 nM CRF, FIG. 28 panel C): highly significantly decreased
sAPPα (SH-SY5Y cells [3]; FIG. 28 panel D, significance for J03 at 100 nM CRF): trend for sAPPα to be higher
sAPPα (%) (SH-SY5Y cells [3]; [4]): Unchanged
tau (SH-SY5Y cells [3]; absence of CRF and presence of 100 nM CRF, FIG. 28 panel A): trend to decrease
p-tau (SH-SY5Y cells [3]; presence and absence of CRF, FIG. 28 panel B): significantly reduced

Ki (CRF1): > 1000 nM
PAMPA (PAMPA): 0.94
solubility (Solubility in DMSO): ~10 mM (≈ 2900 µg/mL)
SMILES: CCC(COC)n1nnc2c(N(C)C3CC3)nc(C)nc21 (stereo not shown) [Compound J11]
Tau % (SH-SY5Y cells [1]; Primary (SH-SY5Y)): Unchanged
sAPPα (%) (SH-SY5Y cells [3]; [4]): Unchanged

solubility (Solubility in DMSO): ~10 mM (≈ 3720 µg/mL)
SMILES: CCC(COC)n1nnc2c(Nc3ccc(OC)cc3OC)nc(C)nc21 (stereo not shown) [Compound J09]
Tau % (SH-SY5Y cells [1]; Primary (SH-SY5Y)): Unchanged

Ki (CRF1): 30 nM
brain levels ([2]; oral delivery, 10 mg/kg): ~50 ng/g
plasma levels relative to brain levels ([2]; oral delivery, 10 mg/kg): ~10 fold
brain levels [2, 5]: ~400 ng/g
plasma levels [2, 5]: ~4000 ng/m
PAMPA (PAMPA): 0.64
solubility (Solubility in DMSO): ~10 mM (≈ 3560 µg/mL)
SMILES: CCC(COC)Nc1nc(C)nc2c1nnn2-c1ccc(OC)cc1C (stereo not shown) [Compound J17]
p-tau (SH-SY5Y cells [1]): significantly lower
tau (SH-SY5Y cells [1]): significantly lower
novel object preference (J20 mice; all mice): increase with J17 was significant
sAPPα (J20 mice; both genders): increase with J03 but not J17
p-tau/tau ratio (J20 mice; males): lower still and just missed significance
sAPPα/sAPPβ ratio (J20 mice; males): greater
activity (total interactions) (J20 mice; not significant): lowered
sAPPβ (J20 mice; one high outlier eliminated): decrease
p-tau after CRF exposure (SH-SY5Y cells [3]; [6]): decreased
tau after CRF exposure (SH-SY5Y cells [3]; [6]): decreased
sAPPα after CRF exposure (SH-SY5Y cells [3]; SH-SY5Y cells, FIG. 19): same as control
sAPPα (%) (SH-SY5Y cells [3]; [4]): Unchanged
sAPPα with increasing concentrations of CRF (SH-SY5Y cells [3]; without CRF and at 50 nM CRF, FIG. 20): lack of increase

Ki (CRF1): 25 nM
PAMPA (PAMPA): 1.11
solubility (Solubility in DMSO): ~10 mM (≈ 3680 µg/mL)
SMILES: CCC(COC)n1nnc2c(N(C)c3c(C)cc(C)cc3C)nc(C)nc21 (stereo not shown) [Compound J14]
Tau % (SH-SY5Y cells [1]; Primary (SH-SY5Y)): Unchanged

Ki (CRF1): > 1000 nM
solubility (Solubility in DMSO): ~10 mM (≈ 3440 µg/mL)
SMILES: CCC(COC)n1nnc2c(Nc3ccc(F)cc3C)nc(C)nc21 (stereo not shown) [Compound J06]
Tau % (SH-SY5Y cells [1]; Primary (SH-SY5Y)): Unchanged
p-Tau (%) (SH-SY5Y cells [3]; [4]): Unchanged

Ki (CRF1): > 1000 nM
PAMPA (PAMPA): 0.34
solubility (Solubility in DMSO): ~10 mM (≈ 3340 µg/mL)
SMILES: CCC(COC)n1nnc2c(N(C)C3CCOCC3)nc(C)nc21 (stereo not shown) [Compound J15]
Tau % (SH-SY5Y cells [1]; Primary (SH-SY5Y)): Unchanged
p-Tau (%) (SH-SY5Y cells [1]; Primary (SH-SY5Y)): ↓>10%
Tau % (SH-SY5Y cells [3]; [4]): ↓>30%
p-Tau (%) (SH-SY5Y cells [3]; [4]): ↓>30%
sAPPα (%) (SH-SY5Y cells [3]; [4]): >10%
